In a polymer gas permeability compilation:

H2 permeability [Barrer]	N2 permeability [Barrer]	O2 permeability [Barrer]	Compound
51	5	12	*C(C(=O)OC(C)C)C(*)C(=O)OC(C)CC (repeat unit)
156	14	45	*C(C(=O)OC(C)C)C(*)C(=O)OC(C)CC(C)C (repeat unit)
169	16	49	*C(C(=O)OC(C)CC(C)C)C(*)C(=O)OC(C)(C)C (repeat unit)
145	13	39	*C(C(=O)OC(C)CC)C(*)C(=O)OC(C)(C)C (repeat unit)
108	2.63	11.8	*c1c(C)c(C)c(N2C(=O)c3ccc(C(=O)c4ccc5c(c4)C(=O)N(*)C5=O)cc3C2=O)c(C)c1C (repeat unit)
38	0.549	3.02	*c1c(C)cc(-c2cc(C)c(N3C(=O)c4ccc(C(=O)Oc5ccc(C(c6ccc(OC(=O)c7ccc8c(c7)C(=O)N(*)C8=O)cc6)(C(F)(F)F)C(F)(F)F)cc5)cc4C3=O)c(C)c2)cc1C (repeat unit)
47.1	1.02	5.69	*c1c(C)cc(C)c(N2C(=O)c3ccc(S(=O)(=O)c4ccc5c(c4)C(=O)N(*)C5=O)cc3C2=O)c1C (repeat unit)
10.9	0.094	0.663	*c1ccc(-c2ccc(N3C(=O)c4ccc([Si](C)(C)c5ccc6c(c5)C(=O)N(*)C6=O)cc4C3=O)c(C)c2)cc1C (repeat unit)
9.33	0.096	0.53	*c1ccc(-c2ccc(N3C(=O)c4ccc([Si](C)(C)c5ccc6c(c5)C(=O)N(*)C6=O)cc4C3=O)c(OC)c2)cc1OC (repeat unit)
0.38	–	0.006	*c1ccc(-c2nc3cc(-c4ccc5[nH]c(*)nc5c4)ccc3[nH]2)c(Br)c1 (repeat unit)
5.62	0.028	0.261	*c1ccc(Cc2ccc(N3C(=O)c4ccc(Oc5ccc6c(c5)C(=O)N(*)C6=O)cc4C3=O)cc2)cc1 (repeat unit)
6.32	0.032	0.296	*c1ccc(Cc2ccc(N3C(=O)c4ccc(S(=O)(=O)c5ccc6c(c5)C(=O)N(*)C6=O)cc4C3=O)cc2)cc1 (repeat unit)
5.43	0.027	0.246	*c1ccc(Cc2ccc(N3C(=O)c4ccc(Sc5ccc6c(c5)C(=O)N(*)C6=O)cc4C3=O)cc2)cc1 (repeat unit)
4.36	0.0355	0.251	*c1ccc(N2C(=O)c3ccc(C(=O)Oc4ccc(C(c5ccc(OC(=O)c6ccc7c(c6)C(=O)N(*)C7=O)cc5)(C(F)(F)F)C(F)(F)F)cc4)cc3C2=O)cc1 (repeat unit)
4	0.034	0.216	*c1ccc(Oc2ccc(N3C(=O)c4ccc(Oc5ccc(Oc6ccc7c(c6)C(=O)N(*)C7=O)cc5)cc4C3=O)cc2)cc1 (repeat unit)
4.68	0.021	0.198	*c1ccc(Oc2ccc(N3C(=O)c4ccc(Sc5ccc6c(c5)C(=O)N(*)C6=O)cc4C3=O)cc2)cc1 (repeat unit)
74.4	1.44	7.75	*c1ccc2c(c1)C(=O)n1c-2nc2ccc(-c3ccc4c(c3)nc3n4C(=O)c4ccc(C(*)(C(F)(F)F)C(F)(F)F)cc4-3)cc21 (repeat unit)
54.9	0.81	5.04	*c1ccc2c(c1)C(=O)n1c-2nc2ccc(Oc3ccc4c(c3)nc3n4C(=O)c4ccc(C(*)(C(F)(F)F)C(F)(F)F)cc4-3)cc21 (repeat unit)
1.38	–	0.045	*c1cccc(-c2nc3cc(-c4ccc5[nH]c(*)nc5c4)ccc3[nH]2)n1 (repeat unit)

Compound	H2 permeability [Barrer]	N2 permeability [Barrer]	O2 permeability [Barrer]
*[Si](C)(C)CCCCCC[Si](*)(C)C (repeat unit)	–	81	182
